According to article PMC9736374, “Design, Synthesis and Antimicrobial Properties of New Tetracyclic Quinobenzothiazine Derivatives” (International Journal of Molecular Sciences, 2022):
Converted amounts (≈) assume the structure as drawn.

How the values were obtained:
[1] = system: Mycobacterium marinum CAMP 5644; assay: In vitro antimycobacterial MIC, broth dilution micro-method; type: cell-based; conditions: CAMP5644, 504 h; MM = Mycobacterium marinum CAMP 5644; 21 days, 28 °C
M. smegmatis ATCC 700084 = assay: as above; type: cell-based, Mycobacterium smegmatis; conditions: Mycolicibacterium smegmatis, ATCC700084, 72 h; MS = M. smegmatis ATCC 700084; 3 days, 37 °C
[2] = system: Staphylococcus aureus ATCC 29213; assay: MIC, microtitration broth method; type: cell-based; conditions: ATCC29213; SA = Staphylococcus aureus ATCC 29213; 24 h, 37 °C
[3] = system: methicillin-resistant S. aureus 63718 (MRSA3); assay: MIC, microtitration broth method; type: cell-based; conditions: Staphylococcus aureus; MRSA3 = 63718; 24 h, 37 °C
[4] = system: methicillin-resistant S. aureus SA 630 (MRSA2); assay: MIC, microtitration broth method; type: cell-based; conditions: Staphylococcus aureus; MRSA2 = SA 630; 24 h, 37 °C
[5] = system: methicillin-resistant S. aureus SA 3202 (MRSA1); assay: MIC, microtitration broth method; type: cell-based; conditions: Staphylococcus aureus; MRSA1 = SA 3202; 24 h, 37 °C
[6] = system: S. aureus ATCC 29213 respiratory activity; assay: MTT assay of bacterial respiration; type: cell-based, Staphylococcus aureus; conditions: for Conc.: corresponding multiple of MBC with at least 70% inhibition of respiratory activity / Conc.: lowest multiple of MIC with at least 70% inhibition of respiratory activity: S. aureus ATCC 29213, MTT, 24 h
[7] = system: Enterococcus faecalis ATCC 29212; assay: MBC, agar aliquot subculture method; type: cell-based; conditions: ATCC29212; EF = Enterococcus faecalis
[8] = system: Enterococcus faecalis ATCC 29212; assay: MIC, microtitration broth method; type: cell-based; conditions: ATCC29212; EF = Enterococcus faecalis; 24 h, 37 °C
[9] = system: methicillin-resistant S. aureus 63718 (MRSA3); assay: MBC, agar aliquot subculture method; type: cell-based; conditions: Staphylococcus aureus; MRSA3 = 63718
[10] = system: methicillin-resistant S. aureus SA 630 (MRSA2); assay: MBC, agar aliquot subculture method; type: cell-based; conditions: Staphylococcus aureus; MRSA2 = SA 630
[11] = system: vancomycin-resistant E. faecalis VRE 725B (VRE3); assay: MBC, agar aliquot subculture method; type: cell-based, Enterococcus faecalis; conditions: VRE3 = VRE 725B
[12] = system: vancomycin-resistant E. faecalis VRE 725B (VRE3); assay: MIC, microtitration broth method; type: cell-based, Enterococcus faecalis; conditions: VRE3 = VRE 725B; 24 h, 37 °C
[13] = system: vancomycin-resistant E. faecalis VRE 342B (VRE1); assay: MIC, microtitration broth method; type: cell-based, Enterococcus faecalis; conditions: VRE1 = VRE 342B; 24 h, 37 °C
[14] = system: vancomycin-resistant E. faecalis VRE 342B (VRE1); assay: MBC, agar aliquot subculture method; type: cell-based, Enterococcus faecalis; conditions: VRE1 = VRE 342B
[15] = system: normal human dermal fibroblasts (NHDF); assay: In vitro cell viability, WST-1 assay; type: cell-based; conditions: 72 h
Protocol: Compounds were evaluated for their antiproliferative activity using NHDF (normal human dermal fibroblasts, ATCC, Manassas, VA, USA). The cultured cells were kept at 37 °C and 5% CO2. The cells were seeded (1 × 10^4 cells/well/100 μL DMEM supplemented with 10% FCS and streptomycin/penicillin) into 96-well plates (Corning Inc., Corning, NY, USA). Cells were counted using a hemocytometer (Burker chamber) and phase contrast Olympus IX50 microscope equipped with Sony SSC-DC58 AP camera and Olympus DP10 digital camera. The cell viability of the compounds was determined using the Cell Proliferation Reagent WST-1 assay (Roche Molecular Biochemicals, Mannheim, Germany). The examined cells were exposed to the tested compounds (1 mg/mL DMSO stock) for 72 h at various concentrations (0.1–100 μg/mL). The control was included in order to eliminate the DMSO effect at the concentration used. Cell cultures were incubated with WST-1 (10 μL) for 1 h. The absorbance of the samples was measured against a background control at 450 nm using a microplate reader with a reference wavelength at 600 nm. The obtained results are expressed as means of at least two independent experiments performed in triplicate.

[16] = system: vancomycin-resistant E. faecalis VRE 368 (VRE2); assay: MIC, microtitration broth method; type: cell-based, Enterococcus faecalis; conditions: VRE2 = VRE 368; 24 h, 37 °C
[17] = system: methicillin-resistant S. aureus SA 3202 (MRSA1); assay: MBC, agar aliquot subculture method; type: cell-based; conditions: Staphylococcus aureus; MRSA1 = SA 3202
Lipophilicity by RP-TLC = type: physicochemical; conditions: Tris buffer pH 7.4/acetone, read-out: logPTLC
Protocol: The lipophilicity parameters were determined experimentally using reverse phase thin-layer chromatography (RP-TLC). Chromatograms were prepared on RP-18F254s plates (1.05559.0001, Merck, Germany) precoated with nonpolar silicone oil. Plates were developed in glass chromatography chambers previously saturated with vapor of mobile phase. The mobile phase was composed of 0.2M Tris buffer (pH = 7.4) and acetone in different concentrations, i.e., 50%, 60%, 70%, 80 and 90%. The chromatograms were visualised in UV light (λ = 254 nm). Determination of the RF coefficient was carried out twice for all compounds; in all cases, acetone concentrations used. The final value of RF is the mean of the two measurements. The obtained RF coefficient was used to calculate the value of the RM parameter according to the equation: RM = log [(1/RF) − 1]. By extrapolating RM values to zero acetone concentration, a relative RM0 lipophilicity parameter was obtained, according to the equation: RM = RM0 + bC, where b is slope and C is concentration of acetone in mobile phase. Based on RM0 and the calibration curve, the values of logPTLC for compounds 6a–l were determined. The calibration curve was calculated using the relationship between RM0 of the standard molecules (acetanilide, p-kresol, p-bromoacetophenone, benzophenone, anthracene) and the corresponding logP parameters specified by the extraction method, respectively. RM0 parameters of the standard molecules and quinobenzothiazine derivatives 6a–l were determined in the same empirical conditions.

[18] = system: vancomycin-resistant E. faecalis VRE 368 (VRE2); assay: MBC, agar aliquot subculture method; type: cell-based, Enterococcus faecalis; conditions: VRE2 = VRE 368
[19] = system: Staphylococcus aureus ATCC 29213; assay: MBC, agar aliquot subculture method; type: cell-based; conditions: ATCC29213; SA = Staphylococcus aureus ATCC 29213

SMILES | MIC [1] [µM] | MIC (M. smegmatis ATCC 700084) [µM] | MIC [2] [µM] | MIC [3] [µM] | MIC [4] [µM] | MIC [5] [µM] | MIC [8] [µM] | MIC [12] [µM] | MIC [13] [µM] | MIC [16] [µM] | chromatographic logP (Lipophilicity by RP-TLC) | MBC [7] [µM] | MBC [9] [µM] | MBC [10] [µM] | MBC [11] [µM] | MBC [14] [µM] | IC50 [15] [µM] | MBC [17] [µM] | MBC [18] [µM] | MBC [19] [µM] | other results
NNC(=O)c1ccncc1 [INH, isoniazid, reference compound] | 467 (≈ 64 µg/mL) | 117 (≈ 16 µg/mL) | – | – | – | – | – | – | – | – | – | – | – | – | – | – | – | – | – | – | –
CO[C@H]1/C=C/O[C@@]2(C)Oc3c(C)c(O)c4c(O)c(c(/C=N/N5CCN(C)CC5)c(O)c4c3C2=O)NC(=O)/C(C)=C\C=C\[C@H](C)[C@H](O)[C@@H](C)[C@@H](O)[C@@H](C)[C@H](OC(C)=O)[C@@H]1C [RIF, rifampicin, reference compound] | 2.43 (≈ 2 µg/mL) | 19.4 (≈ 16 µg/mL) | – | – | – | – | – | – | – | – | – | – | – | – | – | – | – | – | – | – | –
CN(C)[C@@H]1C(O)=C(C(N)=O)C(=O)[C@@]2(O)C(O)=C3C(=O)c4c(O)cccc4[C@@](C)(O)[C@H]3C[C@@H]12 [TTC, tetracycline, reference compound] | – | – | 4.52 (≈ 2.01 µg/mL) | > 72.1 | 36.1 (≈ 16 µg/mL) | 36.1 (≈ 16 µg/mL) | – | – | – | – | – | – | – | – | – | – | – | – | – | – | –
O=C(O)c1cn(C2CC2)c2cc(N3CCNCC3)c(F)cc2c1=O [CPX, ciprofloxacin, reference compound] | – | – | – | – | – | – | – | – | – | – | – | – | – | – | – | – | – | – | – | – | Conc.: corresponding multiple of MBC with at least 70% inhibition of respiratory activity [6]: 32× MIC (32× MBC); Conc.: lowest multiple of MIC with at least 70% inhibition of respiratory activity [6]: 32× MIC (32× MBC); S. aureus Respiration Inhibition ([6]; at the concentration given): 96.1%
CC1(C)S[C@@H]2[C@H](NC(=O)[C@H](N)c3ccccc3)C(=O)N2[C@H]1C(=O)O [AMP, ampicillin, reference compound] | – | – | 5.72 (≈ 2 µg/mL) | – | – | – | 2.81 (≈ 0.982 µg/mL) | – | – | – | – | 2.81 (≈ 0.982 µg/mL) | – | – | – | – | – | – | – | 5.72 (≈ 2 µg/mL) | Conc.: corresponding multiple of MBC with at least 70% inhibition of respiratory activity [6]: 16× MIC (>16× MBC); Conc.: lowest multiple of MIC with at least 70% inhibition of respiratory activity [6]: 16× MIC (>16× MBC)
COc1cccc2c1C(=O)c1c(O)c3c(c(O)c1C2=O)C[C@@](O)(C(=O)CO)C[C@@H]3O[C@H]1C[C@H](N)[C@H](O)[C@H](C)O1 [doxorubicin, reference compound] | – | – | – | – | – | – | – | – | – | – | – | – | – | – | – | – | 5.5 | – | – | – | –
Cc1onc(-c2ccccc2)c1C(=O)N[C@@H]1C(=O)N2[C@@H]1SC(C)(C)[C@@H]2C(=O)O [OXA, oxacillin, reference compound] | – | – | 1.25 (≈ 0.502 µg/mL) | 9.9 (≈ 3.97 µg/mL) | 29.7 (≈ 11.9 µg/mL) | 79.8 (≈ 32 µg/mL) | – | – | – | – | – | – | 9.9 (≈ 3.97 µg/mL) | 29.7 (≈ 11.9 µg/mL) | – | – | – | 79.8 (≈ 32 µg/mL) | – | 1.25 (≈ 0.502 µg/mL) | –

More lines, main results first:

MIC [1] [µM] | MIC (M. smegmatis ATCC 700084) [µM] | MIC [2] [µM] | MIC [3] [µM] | MIC [4] [µM] | MIC [5] [µM] | MIC [8] [µM] | MIC [12] [µM] | MIC [13] [µM] | MIC [16] [µM] | chromatographic logP (Lipophilicity by RP-TLC) | SMILES | MBC [7] [µM] | MBC [9] [µM] | MBC [10] [µM] | MBC [11] [µM] | MBC [14] [µM] | IC50 [15] [µM] | MBC [17] [µM] | MBC [18] [µM] | MBC [19] [µM] | other results
44.8 | 89.6 | 359 | 179 | 359 | 359 | 179 | 179 | 359 | 359 | 2.29 | C=CCOc1cccc2c1Nc1c(c[n+](C)c3ccccc13)S2 [Compound 6f, 11-allyloxy-5-methyl-12H-quino[3,4-b][1,4]benzothiazinium chloride] | 359 | 359 | 359 | 179 | 359 | > 100 | 359 | 359 | 359 | –
44.6 | 44.6 | 178 | 178 | 178 | 178 | 178 | 89.1 | 178 | 178 | 1.18 | CCCOc1cccc2c1Nc1c(c[n+](C)c3ccccc13)S2 [Compound 6c, 11-propoxy-5-methyl-12H-quino[3,4-b][1,4]benzothiazinium chloride] | 178 | 178 | 178 | 178 | 178 | > 100 | 178 | 178 | 178 | –
22.5 | 22.5 | 45.1 | 45.1 | 90.1 | 90.1 | 45.1 | 22.5 | 45.1 | 45.1 | 1.74 | C#CCOc1ccc2c(c1)Nc1c(c[n+](C)c3ccccc13)S2 [Compound 6h, 10-propargyloxy-5-methyl-12H-quino[3,4-b][1,4]benzothiazinium chloride] | 45.1 | 45.1 | 90.1 | 22.5 | 45.1 | > 100 | 90.1 | 45.1 | 45.1 | –
45.1 | 90.1 | 180 | 180 | 361 | 180 | 361 | 180 | 180 | 180 | 2.2 | C#CCOc1cccc2c1Nc1c(c[n+](C)c3ccccc13)S2 [Compound 6i, 11-propargyloxy-5-methyl-12H-quino[3,4-b][1,4]benzothiazinium chloride] | 361 | 180 | 361 | 180 | 180 | 47.5 | 361 | 180 | 180 | –
11.2 | 22.4 | 44.8 | 44.8 | 89.6 | 44.8 | 44.8 | 22.4 | 44.8 | 44.8 | 2.98 | C=CCOc1ccc2c(c1)Sc1c[n+](C)c3ccccc3c1N2 [Compound 6d, 9-allyloxy-5-methyl-12H-quino[3,4-b][1,4]benzothiazinium chloride] | 44.8 | 44.8 | 89.6 | 44.8 | 44.8 | > 100 | 44.8 | 44.8 | 44.8 | –
